Test results taken from patent US20190298743A1, “TREATMENT OF PAIN” (Takeda Pharmaceutical Company Limited, priority 2016, published 2019).

Tests used:
[1] = test system: PAR2; assay: BRET resensitisation assay, PAR2-RLuc8 with TGN38-venus in HEK293 cells; format: cell-based; conditions: 30 minute pre-treatment, all three proteases
Procedure: BRET resensitisation assays were used to quantify export of PAR2 from the trans-golgi network (TGN38-venus) upon stimulation of receptor expressed at the cell surface with a variety of proteases. The assays were repeated with various inhibitors of signaling nodes to verify signaling mechanisms behind receptor resensitisation.
After achieving ˜50% confluency within 10 cm dishes HEK293 cells were transiently transfected with PAR2-RLuc8 (1 μg) and TGN38-Venus (4 μg) using PEI as a transfection agent. 24 hours post transfection, cells were seeded into poly-D-lysine coated 96-well isoplates. BRET experiments were conducted the following day. Cells were allowed to equilibrate in either 1×HBSS (+0-28 g HEPES/100 ml, pH 7-40), […] Gallein (Gβγ inhibitor), 100 nM CRT0066101 (PKD inhibitor) or G06983 (PKC inhibitor) at 37° C. for 30 minutes before the addition of colenterazine H [5 μM]. Following a 5 minute incubation BRET was assessed using a LUMIstar Omega microplate reader (BMG LabTech, Offenburg, Germany), with luminescence being read at 535 nm and 475 nm. A 4 minute baseline was obtained before the addition of vehicle (1×HBSS) or protease, measurements were then continued for a further 30 minutes. BRET ratios were calculated using LUMIstar MARS analysis software and then corrected to baseline and vehicle treatments in Microsoft Excel 2013.

[2] = test system: DRG neurons; assay: Perforated patch-clamp excitability (rheobase) of isolated DRG neurons; format: cell-based, mice; conditions: for Effect of inhibitor alone on rheobase: 0 or 30 min; for Effect on cathepsin S- or elastase-induced decrease in rheobase (sustained excitability) at 30 min / Effect on trypsin-induced decrease in rheobase (sustained excitability) at 30 min / Effect on protease induced decrease in rheobase (initial hyperexcitability) at 0 min: inhibitor 30 min before and during protease; for Effect on protease induced decrease in rheobase (initial hyperexcitability) at 0 min: trypsin, cathepsin S or elastase
Procedure: To assess the effects of proteases on excitability of nociceptors, DRG neurons were preincubated with trypsin, cathepsin S, elastase or vehicle (control), washed, and rheobase and action potential discharge at a current of twice rheobase were measured at 0 min or 30 min after washing.
DRG (T9-T13) from C57BL/6 mice were digested by incubation in collagenase (1 mg/ml, Worthington Biochemical, Lakewood, N.J.) and dispase (4 mg/ml, Roche Life Science, Indianapolis, Ind.) for 10 min at 37° C., and were dispersed by trituration with a fire-polished Pasteur pipette. Cells were plated onto coverslips coated with laminin (0.017 mg/ml) and poly-D-lysine (2 mg/ml) in 24-well plates. Neurons were cultured in F12 medium (Cat N668, Lot RNBD5333, Sigma-Aldrich, St Louis, Mo. USA) containing 10% fetal calf serum, with penicillin and streptomycin and maintained at 37° C. in a humidified atmosphere of 95% air and 5% CO2 until retrieval (16 h) for electrophysiological studies.
Neuronal excitability was assessed by perforated patch-clamp recordings with amphotericin B (240 μg/ml) from small diameter neurons (<30 pF capacitance) in current clamp mode at room temperature. Only neurons with resting membrane potentials more negative than −40 mV were analyzed. Changes in excitability were quantified by measuring rheobase (minimum current to fire action potential) and numbers of action potentials discharged at twice rheobase. Recordings were made using Axopatch 200B amplifiers, digitized by Digidata 1322A and stored and processed using pClamp 10.1 software (Molecular Devices, Sunnyvale, Calif.). The recording chamber was continuously perfused with external solution at 2 ml/min. External solution was (mM): 140 NaCl, 5 KCl, 10 HEPES, 10 D-glucose, 1 MgCl2, 2 CaCl2; pH to 7.4 with 3 M NaOH. Pipette solution was (mM): 110 K-gluconate, 30 KCl, 10 HEPES, 1 MgCl2, 2 CaCl2; pH 7.25 with 1 M KOH.
DRG neurons were pre-incubated with vehicle (control) or proteases using conditions that we have reported to cause robust hyperexcitability: trypsin (50 nM, 10 min), elastase (10 U/ml, 390 nM, 30 min), Cat-S (500 nM, 60 min). Neurons were then washed and maintained in protease-free F12 medium. Neuronal excitability was assessed 0 or 30 min after washing. In some experiments, neurons were incubated with vehicle (0.3% DMSO), Dyngo4a (30 μM) or PitStop2 (15 μM) for 30 min before and during incubation with proteases.
Results are expressed as mean±SE. Two way ANOVA and post hoc Tukey's tests were used to analyze the data.

[3] = Protease-evoked mechanical hyperalgesia, von Frey paw withdrawal; format: in vivo, mice; conditions: for Effect on trypsin-evoked mechanical hyperalgesia: 30 min before trypsin
Procedure: (§1) Immediately before experiments the mice were acclimatized to the experimental apparatus, room and investigator for 1-2 h on 2 successive days. Mechanical nociceptive responses were evaluated by paw withdrawal to stimulation of the plantar surface of the hind-paw with calibrated von Frey filaments. von Frey scores were measured in triplicate to establish a baseline for each animal on the day before experiments. Paw edema was estimated by measuring the thickness of the hindpaw using digital calipers before and after treatments. Mice were […] with 5% isoflurane for intraplantar injections. Dyngo4a (50 μM), PitStop2 (50 μM) or vehicle (0.2% DMSO in 0.9% NaCl) (all 10 μl) were injected into the left hindpaw. After 30 min, trypsin (10 nM), Cat-S (2.5 μM) or elastase (30 U) (all 10 μl) were injected into the same left hindpaw. von Frey scores (left and right paws) and paw thickness (left paw) were measured hourly for up to 4 h after protease injection. Investigators were blinded to the test agents.

[4] = test system: PAR2; assay: BRET receptor trafficking, PAR2-RLuc8 with plasma membrane marker RIT-venus in HEK293 cells; format: cell-based; conditions: for Effect on trypsin evoked internalisation, plasma membrane marker: 30 μM inhibitor, 30 minute pre-treatment
Procedure: (§2) Bret studies of receptor trafficking were conducted to quantify PAR2 internalisation (RIT-venus) and trafficking to early endosomes (Rab5a-venus) upon stimulation with different agonists.
(§3) After achieving ˜50% confluency within 10 cm dishes HEK293 cells were transiently transfected with 1 μg PAR2-RLuc8 and 4 μg of either RIT-venus or Rab5a-venus using PEI as a transfection agent. 24 hours post transfection, cells were seeded into poly-D-lysine coated 96-well isoplates. […] When used endocytic inhibitors were diluted in 1×HBSS+1% dimethyl sulfoxide (DMSO). Following the replacement of culture media cells were allowed to equilibrate at 37° C. for 30 minutes before the addition of colenterazine H [5 μM]. After a further 5 minute incubation BRET was assessed using a LUMIstar Omega microplate reader (BMG LabTech, Offenburg, Germany), with luminescence being read at 535 nm and 475 nm. A 4 minute baseline was obtained before the addition of vehicle (1×HBSS+/−1% DMSO) or protease, measurements were then continued for a further 30 minutes. BRET ratios were calculated using LUMIstar MARS analysis software and then corrected to baseline and vehicle treatments in Microsoft Excel 2013.

[5] = test system: PAR2; assay: BRET receptor trafficking, PAR2-RLuc8 with early endosomal marker Rab5a-venus in HEK293 cells; format: cell-based; conditions: for Effect on trypsin evoked internalisation, early endosomal marker: 30 μM inhibitor, 30 minute pre-treatment
Procedure: as §2, §3

[6] = test system: PAR2; assay: BRET proximity of PAR2 to KRas (plasma membrane) and Rab5a (endosomes) in HEK cells; format: cell-based
Procedure: (§4) The contribution of endocytosis of protease-activated receptor-2 (PAR2) was evaluated for generation of signals in subcellular compartments that mediate protease-evoked sensitization of nociceptors. Bioluminescence resonance energy transfer (BRET) was used to assess the proximity of PAR2 to resident proteins of the plasma membrane (KRas) and endosomes (Rab5a) in HEK cells. […] Förster resonance energy transfer (FRET) biosensors targeted to the plasma membrane, cytosol or nucleus were used to examine the capacity of proteases to generate signals in subcellular compartments of HEK cells and rat dorsal root ganglia neurons. […] Dynamin inhibitor Dyngo4a, Clathrin inhibitor Pitstop2 and dominant negative β-arrestin inhibited trypsin-evoked endocytosis of PAR2, and prevented trypsin-evoked activation of cytosolic cAMP and PKC and nuclear ERK. […] To examine the link between PAR2 endocytosis, compartmentalized signaling and nociceptor sensitization, perforated patch clamp recordings were made from mouse dorsal root ganglia neurons. […] The effects of proteases on excitability were blocked by the PAR2 antagonist GB88. Thus, canonical and biased proteases sensitize nociceptors by distinct mechanisms. For canonical agonists, PAR2 endocytosis generates compartmentalized signals subcellular compartments that underlie sustained excitability of nociceptive neurons. Inhibiting endosomal signaling of PAR2 may provide a novel method of treating protease-evoked pain.

[7] = test system: PAR2; assay: FRET biosensors for compartmentalised cAMP, PKC and ERK signals in HEK cells and rat dorsal root ganglia neurons; format: cell-based
Procedure: as §4

[8] = Protease-evoked paw edema, hindpaw thickness; format: in vivo, mice
Procedure: as §1

[9] = test system: PAR2; assay: Whole population FRET with cytosolic ERK sensor CytoEKAR in HEK293 cells; format: cell-based
Procedure: (§5) Förster Resonance Energy Transfer (FRET) was used to characterise PAR2 mediated ERK within different subcellular compartments upon stimulation with different agonists. The assays were repeated after employing pharmacological and genetic approaches shown to abolish receptor internalisation to assess the role of internalisation in generating compartmentalised signals.
(§6) After achieving ˜50% confluency within 10 cm dishes HEK293 cells were transfected with 2-5 μg of PAR2 with N-terminal HA epitope tag (PAR2-HA) and 2-5 μg of desired FRET biosensor, using PEI as a transfection agent. 24 hours after transfection, cells were seeded into poly-D-lysine coated black 96 well isoplates. FRET was assessed 48 hours after cell plating, following overnight serum restriction. […] When used endocytic inhibitors were diluted in 1×HBSS+1% dimethyl sulfoxide (DMSO). Following the replacement of culture media cells were allowed to equilibrate at 37° C. for 30 minutes. FRET was then determined using a PHERAstar FS microplate reader (BMG LabTech, Offenburg, Germany), cells were sequentially excited at 430 nm with emissions being read at 550 nm and 490 nm. A 4 minute baseline was obtained before the addition of vehicle (1×HBSS+/−1% DMSO), protease or 1 μM PDBu (serving as a positive control). Measurements were then continued every minute for a further 30 minutes. FRET ratios were then calculated and corrected to baseline and vehicle treatments in Microsoft Excel 2013.

[10] = test system: PAR2; assay: Whole population FRET with nuclear ERK sensor NucEKAR in HEK293 cells; format: cell-based
Procedure: as §5
as §6, with “Measurements were then continued every minute for a further 30 minutes.” left out

[11] = intraplantar 50 μM, 30 min before protease

Molecule	Effect on protease induced PAR2 trafficking away from the trans-golgi network [1]	Effect of inhibitor alone on rheobase [2]	Effect on cathepsin S- or elastase-induced decrease in rheobase (sustained excitability) at 30 min [2]	Effect on trypsin-induced decrease in rheobase (sustained excitability) at 30 min [2]	Effect on protease induced decrease in rheobase (initial hyperexcitability) at 0 min [2]	Effect on trypsin-evoked mechanical hyperalgesia ([3]; intraplantar 50 μM)	Effect on trypsin evoked internalisation, plasma membrane marker [4]	Effect on trypsin evoked internalisation, early endosomal marker [5]	Effect on trypsin-evoked endocytosis of PAR2 [6]	Effect on trypsin-evoked activation of cytosolic cAMP and PKC and nuclear ERK [7]	other results
CC[C@@H](N)CNc1ccnc(-c2cc(-c3cnn(C)c3)ccc2O)n1.Cl.Cl [CRT0066101]	Less prominent effects	–	–	–	–	–	–	–	–	–	–
O=C(N/N=C/c1cc(O)c(O)cc1O)c1cc2ccccc2cc1O [Dyngo4a, reference compound]	–	Neither vehicle, PitStop2 nor Dyngo4a alone affected rheobase	no effect and not	prevented	did not affect	inhibited	less pronounced inhibition	less pronounced inhibition	inhibited	prevented	Effect on Cat-S- or elastase-evoked mechanical hyperalgesia [3, 11]: did not affect; Effect on trypsin-, Cat-S- or elastase-evoked edema [8, 11]: did not affect
COc1ccc2c(c1)c(C1=C(c3c[nH]c4ccccc34)C(=O)NC1=O)cn2CCCN(C)C [G06983]	Less prominent effects	–	–	–	–	–	–	–	–	–	–
O=C1OC2(c3ccccc31)c1ccc(O)c(O)c1Oc1c2ccc(O)c1O [Gallein]	reduced PAR2 trafficking away from the trans-golgi network	–	–	–	–	–	–	–	–	–	–
O=C1NC(=NS(=O)(=O)c2cccc3ccccc23)S/C1=C\c1ccc(Br)cc1 [PitStop2, reference compound]	–	Neither vehicle, PitStop2 nor Dyngo4a alone affected rheobase	no effect	prevented	did not affect	inhibited	reduced the magnitude of BRET	reduced the magnitude of BRET	inhibited	prevented	Effect on cathepsin S- or elastase-induced decrease in rheobase (sustained excitability) at 30 min ([2]; listed as Pitstop2): not; Effect on trypsin evoked cytosolic ERK phosphorylation ([9]; 30 μM inhibitor, 30 minute pre-treatment): diminished
elastase	–	–	–	–	–	–	–	–	–	–	Effect of protease on excitability (rheobase) of DRG neurons ([2]; 0 min and 30 min after washing): immediate increase in excitability; Mechanical hyperalgesia after intraplantar injection of protease ([3]; ipsilateral paw): caused mechanical hyperalgesia of the ipsilateral paw that was sustained for at least 4 h; Change in BRET between PAR2 and plasma membrane marker upon agonist stimulation ([4]; trypsin 10 nM): not observed; Ability of agonist to produce ERK signals within the nucleus [10]: not; Change in BRET between PAR2 and early endosomal marker upon agonist stimulation ([5]; trypsin 10 nM): not observed; Ability of agonist to produce ERK signals within the cytoplasm [9]: not; PAR2 endocytosis induced by agonist ([6]; HEK cells): did not induce PAR2 endocytosis; Signals generated by protease in subcellular compartments [7]: only activated cAMP and PKC at the plasma membrane and ERK in the cytosol; Edema after intraplantar injection of protease ([8]; ipsilateral paw): edema of the ipsilateral paw that was maximal after 4 h
